Results on one substance are retold here after patent US12409237B1, “Methods and models for assessing efficacy of immunotherapies” (The Jackson Laboratory, priority 2016, dated 2025).

“Also recorded” adds a separate entry of the source.

The subject of the assay is human BL0293 tumor cells (bladder cancer cells). Briefly: Tumor growth of BL0293 patient-derived xenograft in NSG-Quad mice engrafted with human CD34+ hematopoietic stem cells. It is filed as in vivo, mouse. To be noted: NSG-Quad mice with human CD34+ HSC and BL0293 xenografts; intravenous 10 mg/kg on day 0, then 5 mg/kg on days 5, 10 and 15; versus vehicle; tumors 60-100 mm^3 at grouping. On the procedure:
NSG-Quad mice were irradiated with 50 cGy whole body radiation. NSG-SGM3 mice were irradiated with 50 cGy whole body radiation and NSG mice were irradiated with 100 cGy whole body radiation as controls. Each mouse received about 100,000 human CD34^+ hematopoietic stem cells from the same donor by injection. Blood cells obtained by retro-orbital bleeding at 10 weeks post-engraftment were assessed by flow cytometry for mouse CD45, human CD45, human CD20, human CD3, human CD33, human CD14, and human CD56 (FIG. 1A-F). Live cells were gated using LIVE/DEAD® (ThermFisher Scientific).
BR1126, MDA-MB-231, TM1149, and BL0293 tumor cells were separately implanted subcutaneously into NSG-Quad and NSG-SGM3 mice at 7-12 weeks post-CD34^+-cell engraftment (see Example 1). Tumor sizes were measured with calipers.
NSG-Quad mice xenografted with human BL0293 tumor cells (bladder cancer cells) were grouped when tumors reached 60-100 mm^3, and mice were then administered intravenous pembrolizumab at 10 mg/kg on day 0 followed by 5 mg/kg on days 5, 10, and 15. Tumor sizes were measured by calipers.
FIG. 5 is a graph depicting tumor volumes for NSG-Quad mice that have human CD34^+ hematopoietic stem cell xenografts and BL0293 patient-derived xenografts and receiving either pembrolizumab (Keytruda®) or vehicle. Each data point corresponds to a single mouse at a specific time-point. […]

Consider pembrolizumab, for which the “tumor growth (tumor volume measured by calipers)” value is on record as “reduced tumor growth rates; also recorded: slower tumor growth on average”.
